Some test systems named below: UACC-257 melanoma; HCT-15 colon; TK-10 renal; RXF 393 renal; HOP-62 NSCLC; SF-295 CNS; SK-MEL-2 melanoma; SK-OV-3 ovarian.
Common to all, as to assay: DTP human tumour cell line panel, 48 h

For orientation: TGI means the concentration at which net growth stops. A low value points to greater sensitivity of the cells.

Molecules are shown by their SMILES.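 Values below derive from 48-hour exposures of cells grown in 96-well plates, with endpoints linearly interpolated between the two concentrations bracketing the appropriate inhibition level. TGI denotes the concentration required for complete inhibition of growth.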

As for `COc1cc(CCc2ccncc2)cc(OC)c1OC`, the total growth inhibition concentration (TGI) in the test with UACC-257 melanoma, with HCT-15 colon, with TK-10 renal, in the test with RXF 393 renal, with HOP-62 NSCLC and in the test on SF-295 CNS was over 100 µM in each case.
As to `CC1OC(=O)N2CCC=CC12` (configuration not stated), the TGI in the test on UACC-257 melanoma, with SK-MEL-2 melanoma, in the test with HCT-15 colon, in the test on TK-10 renal, in the test on SK-OV-3 ovarian and with RXF 393 renal was over 100 µM each time. In the test with SF-295 CNS, this molecule displayed a concentration for total growth inhibition (TGI) of over 100 µM.
`CC1=CC(=O)N2C(OC[C@@H]2c2ccccc2)O1` (some centres not stated): the total growth inhibition concentration (TGI) with UACC-257 melanoma, with SK-MEL-2 melanoma, in the test on HCT-15 colon, in the test with TK-10 renal, in the test with SK-OV-3 ovarian and in the test on RXF 393 renal was over 100 µM throughout. Besides, the TGI with HOP-62 NSCLC and with SF-295 CNS was over 100 µM throughout.
As to `Cc1c(Cl)cccc1NC(=O)C(=O)c1c(O)c2ccc(O)cc2oc1=O`, the total growth inhibition concentration (TGI) with UACC-257 melanoma, in the test with SK-MEL-2 melanoma, in the test on HCT-15 colon, in the test with TK-10 renal, in the test with SK-OV-3 ovarian and in the test with RXF 393 renal was over 100 µM in each case. The TGI in the test on HOP-62 NSCLC and in the test with SF-295 CNS was over 100 µM each time.
On to `CC(CC(=O)Nc1ccc(NC(=O)CC(C)N=NC(N)=O)cc1)N=NC(N)=O` (configuration not stated), for which the TGI in the test with UACC-257 melanoma was over 100 µM; in the test on SK-MEL-2 melanoma it was over 100 µM; with HCT-15 colon, 33.6 µM; in the test with TK-10 renal, over 100 µM; in the test on SK-OV-3 ovarian, over 100 µM; in the test on RXF 393 renal, over 100 µM. In addition, the TGI in the test on HOP-62 NSCLC and in the test with SF-295 CNS was over 100 µM each time.
Take `Oc1ccc(O)c(-n2cccn2)c1-n1cccn1`: the TGI in the test with SK-MEL-2 melanoma, with HCT-15 colon, with TK-10 renal, in the test with SK-OV-3 ovarian, in the test on RXF 393 renal and in the test on HOP-62 NSCLC was over 100 µM throughout. The total growth inhibition concentration (TGI) in the test on SF-295 CNS is over 100 µM.
As to `C#C[C@@H](CCCC)OC(=O)N[C@H](C)c1ccccc1`, the TGI is over 100 µM with UACC-257 melanoma; 53.1 µM in the test on SK-MEL-2 melanoma; over 100 µM with TK-10 renal; over 100 µM in the test on SK-OV-3 ovarian; over 100 µM with HOP-62 NSCLC; over 100 µM in the test with SF-295 CNS.
For the molecule `CN(C)C(=S)/N=c1\ss/c(=N\S(=O)(=O)c2ccccc2)n1C`, the TGI with UACC-257 melanoma, in the test on SK-MEL-2 melanoma, with HCT-15 colon, in the test on TK-10 renal, with SK-OV-3 ovarian and in the test with RXF 393 renal was over 100 µM throughout. In addition, the total growth inhibition concentration (TGI) with HOP-62 NSCLC and in the test on SF-295 CNS was over 100 µM in each case.
Regarding `CCCCCC/C(CC(=O)CCC(=O)NCCc1ccccc1)=N\Nc1ccc([N+](=O)[O-])cc1[N+](=O)[O-]`, the TGI with UACC-257 melanoma, with SK-MEL-2 melanoma, in the test with HCT-15 colon, in the test on TK-10 renal, in the test with SK-OV-3 ovarian and in the test on RXF 393 renal was over 100 µM in each case. The TGI in the test with HOP-62 NSCLC and in the test on SF-295 CNS was over 100 µM throughout.
For the molecule `Cc1ccc(C)c(NC(=O)C(=O)Nn2c(=S)[nH]c3ccccc3c2=O)c1`, the TGI in the test with UACC-257 melanoma, with SK-MEL-2 melanoma, in the test with HCT-15 colon, in the test with TK-10 renal, in the test with SK-OV-3 ovarian and in the test on RXF 393 renal was over 100 µM throughout. Further, the TGI in the test on HOP-62 NSCLC and in the test on SF-295 CNS was over 100 µM throughout.
As for `CC/C(C)=C1\CCC(CN(C)C)C1=O` (configuration not stated), the TGI with UACC-257 melanoma is 31.4 µM; in the test with SK-MEL-2 melanoma, 32.5 µM; with HCT-15 colon it was 29.2 µM; with TK-10 renal, 31.1 µM; in the test with RXF 393 renal it was 40.4 µM; with HOP-62 NSCLC, over 100 µM. Moreover, the concentration for total growth inhibition (TGI) in the test with SF-295 CNS is over 100 µM.
Turning to `Cc1nc(-n2nc(-c3ccccc3)cc2-c2ccccc2)sc1C(=O)CC(=O)C(=O)Nc1ccc(O)cc1`, the TGI in the test on UACC-257 melanoma, with SK-MEL-2 melanoma, in the test on HCT-15 colon, in the test on TK-10 renal, in the test on SK-OV-3 ovarian and with RXF 393 renal was over 100 µM in each case. Further, the TGI with HOP-62 NSCLC and with SF-295 CNS was over 100 µM each time.
Turning to `CCCCOP1(=O)CC(C)=C(Cl)C(C)(OC)C1` (configuration not stated), the TGI with UACC-257 melanoma, in the test on SK-MEL-2 melanoma, in the test with HCT-15 colon, with TK-10 renal, in the test with SK-OV-3 ovarian and in the test with RXF 393 renal was over 100 µM in each case. For the same molecule, the TGI in the test with HOP-62 NSCLC and with SF-295 CNS was over 100 µM throughout.
Regarding `N#CNC1=NCCC(=O)N1CCc1c[nH]c2ccccc12`, the TGI with UACC-257 melanoma, in the test on HCT-15 colon, in the test on TK-10 renal, in the test on SK-OV-3 ovarian, in the test on RXF 393 renal and with HOP-62 NSCLC was over 100 µM throughout. In the test on SF-295 CNS, this molecule returned a TGI of over 100 µM.
Take `COC1CC(n2cc(F)c(N)nc2=O)OC1CO` (configuration not stated): the total growth inhibition concentration (TGI) with UACC-257 melanoma, in the test on SK-MEL-2 melanoma, in the test with HCT-15 colon, in the test with TK-10 renal, in the test with SK-OV-3 ovarian and in the test with RXF 393 renal was over 100 µM in each case. Further, the TGI with HOP-62 NSCLC and in the test with SF-295 CNS was over 100 µM each time.
Regarding `O=C1C(=Cc2ccc(F)cc2)C(=O)c2ccccc21`, the concentration for total growth inhibition (TGI) with UACC-257 melanoma, with SK-MEL-2 melanoma, in the test with HCT-15 colon, in the test with TK-10 renal, in the test with SK-OV-3 ovarian and in the test on HOP-62 NSCLC was over 100 µM throughout. The same molecule yielded a total growth inhibition concentration (TGI) in the test on SF-295 CNS of over 100 µM.
For the molecule `N#CC(C#N)C(c1ccccc1)c1ccccc1`, the TGI in the test on UACC-257 melanoma, with SK-MEL-2 melanoma, with HCT-15 colon, with TK-10 renal, with SK-OV-3 ovarian and with RXF 393 renal was over 100 µM each time. In addition, the TGI in the test on HOP-62 NSCLC and with SF-295 CNS was over 100 µM throughout.

The record behind these values is PubChem BioAssay (NCI).
